Patent US20210395256A1, “TYROSINE KINASE INHIBITORS, COMPOSITIONS AND METHODS THERE OF” (Betta Pharmaceuticals Co., Ltd., priority 2018, published 2021)

What follows are molecules tested against TrkA kinase (Homo sapiens, UniProt P04629) (assay: TrkA kinase assay (mobility shift assay)). Conditions: class symbols; read-out: Trk A Kinase IC50.
Type: biochemical
How it was run: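 Ten-point compound series was preincubated 10 min at room temperature with TrkA, then FAM-peptide plus ATP added in HEPES pH 7.5/Brij-35 buffer and reacted at 28 °C before EDTA quench.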

Sequence of TrkA kinase (P04629 33-796): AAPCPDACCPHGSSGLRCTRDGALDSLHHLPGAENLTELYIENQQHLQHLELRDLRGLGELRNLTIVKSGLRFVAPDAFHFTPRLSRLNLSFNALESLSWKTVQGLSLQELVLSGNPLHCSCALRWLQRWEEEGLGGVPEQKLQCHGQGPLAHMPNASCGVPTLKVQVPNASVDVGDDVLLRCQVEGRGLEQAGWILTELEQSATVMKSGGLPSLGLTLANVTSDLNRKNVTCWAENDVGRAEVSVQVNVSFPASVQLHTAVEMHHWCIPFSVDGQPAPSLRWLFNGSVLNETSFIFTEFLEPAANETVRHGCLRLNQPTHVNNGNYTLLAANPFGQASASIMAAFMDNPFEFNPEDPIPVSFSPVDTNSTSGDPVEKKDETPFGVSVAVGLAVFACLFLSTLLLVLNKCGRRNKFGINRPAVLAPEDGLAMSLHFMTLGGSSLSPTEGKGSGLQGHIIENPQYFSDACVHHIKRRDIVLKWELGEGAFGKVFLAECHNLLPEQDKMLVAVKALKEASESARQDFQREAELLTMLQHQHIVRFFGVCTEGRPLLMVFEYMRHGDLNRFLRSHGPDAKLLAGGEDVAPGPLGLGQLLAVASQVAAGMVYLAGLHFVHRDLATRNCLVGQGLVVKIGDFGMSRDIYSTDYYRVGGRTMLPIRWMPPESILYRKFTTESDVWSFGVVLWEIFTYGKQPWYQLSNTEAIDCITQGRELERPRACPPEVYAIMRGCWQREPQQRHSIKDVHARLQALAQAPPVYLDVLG

Compound | IC50 [nM]
Fc1ccc(F)c([C@H]2CCCN2c2ccn3ncc(-c4nc5c(s4)CNCC5)c3n2)c1 [Compound 190, (R)-2-(5-(2-(2,5-difluorophenyl)pyrrolidin-1-yl)pyrazolo[1,5-a]pyrimidin-3-yl)-4,5,6,7-tetrahydrothiazolo[5,4-c]pyridine] | ≤ 10
N#Cc1cc2nc(-c3cnn4ccc(N5CCC[C@@H]5c5cc(F)ccc5F)nc34)[nH]c2cc1OCCO [Compound 150, (R)-2-(5-(2-(2,5-difluorophenyl)pyrrolidin-1-yl)pyrazolo[1,5-a]pyrimidin-3-yl)-6-(2-hydroxyethoxy)-1H-benzo[d]imidazole-5-carbonitrile] | ≤ 10
N#Cc1cc2nc(-c3cnn4ccc(N5CCC[C@@H]5c5cc(F)ccc5F)nc34)[nH]c2cc1N1CC[C@H](O)C1 [Compound 164, 2-(5-((R)-2-(2,5-difluorophenyl)pyrrolidin-1-yl)pyrazolo[1,5-a]pyrimidin-3-yl)-6-((S)-3-hydroxypyrrolidin-1-yl)-1H-benzo[d]imidazole-5-carbonitrile] | ≤ 10
COc1cc2[nH]c(-c3cnn4ccc(N5CCC[C@H]5c5cc(F)ccc5F)nc34)nc2cc1C#N [Compound 197, (S)-2-(5-(2-(2,5-difluorophenyl)pyrrolidin-1-yl)pyrazolo[1,5-a]pyrimidin-3-yl)-6-methoxy-1H-benzo[d]imidazole-5-carbonitrile] | 10 to 50
O=C(O)c1ccc2[nH]c(-c3cnn4ccc(N5CCC[C@@H]5c5cc(F)ccc5F)nc34)cc2c1 [Compound 185, (R)-2-(5-(2-(2,5-difluorophenyl)pyrrolidin-1-yl)pyrazolo[1,5-a]pyrimidin-3-yl)-1H-indole-5-carboxylic acid] | ≤ 10
Fc1ccc(F)c([C@H]2CCCN2c2ccn3ncc(-c4nc5cc6nc7ccccc7nc6cc5[nH]4)c3n2)c1 [Compound 130, (R)-2-(5-(2-(2,5-difluorophenyl)pyrrolidin-1-yl)pyrazolo[1,5-a]pyrimidin-3-yl)-1H-imidazo[4,5-b]phenazine] | > 50
CC(O)c1cc2nc(-c3cnn4ccc(N5CCC[C@@H]5c5cc(F)ccc5F)nc34)oc2cc1F (stereo partly drawn) [Compound 93, 1-(2-(5-((R)-2-(2,5-difluorophenyl)pyrrolidin-1-yl)pyrazolo[1,5-a]pyrimidin-3-yl)-6-fluorobenzo[d]oxazol-5-yl)ethan-1-ol] | ≤ 10
COc1cc2nc(-c3c(N)nn4ccc(N5CCC[C@@H]5c5cc(F)ccc5F)nc34)[nH]c2cc1OC [Compound 193, (R)-5-(2-(2,5-difluorophenyl)pyrrolidin-1-yl)-3-(5,6-dimethoxy-1H-benzo[d]imidazol-2-yl)pyrazolo[1,5-a]pyrimidin-2-amine] | ≤ 10
Fc1ccc(F)c([C@H]2CCCN2c2ccn3ncc(-c4nc5cc(OC(F)F)c(OC(F)F)cc5[nH]4)c3n2)c1 [Compound 109, (R)-3-(5,6-bis(difluoromethoxy)-1H-benzo[d]imidazol-2-yl)-5-(2-(2,5-difluorophenyl)pyrrolidin-1-yl)pyrazolo[1,5-a]pyrimidine] | ≤ 10
COC(=O)c1cc2oc(-c3cnn4ccc(N5CCC[C@@H]5c5cc(F)ccc5F)nc34)nc2cc1OC [Compound 178, methyl (R)-2-(5-(2-(2,5-difluorophenyl)pyrrolidin-1-yl)pyrazolo[1,5-a]pyrimidin-3-yl)-5-methoxybenzo[d]oxazole-6-carboxylate] | ≤ 10
N#Cc1ccc2nc(-c3cnn4ccc(N5CCC[C@@H]5c5cc(F)ccc5F)nc34)[nH]c2c1 [Compound 107, (R)-2-(5-(2-(2,5-difluorophenyl)pyrrolidin-1-yl)pyrazolo[1,5-a]pyrimidin-3-yl)-1H-benzo[d]imidazole-6-carbonitrile] | ≤ 10

The next lines start with the values.

IC50 [nM] | Compound
≤ 10 | O=C1NCCNc2cc3[nH]c(-c4cnn5ccc(N6CCC[C@@H]6c6cc(F)ccc6F)nc45)nc3cc21 [Compound 146, (R)-2-(5-(2-(2,5-difluorophenyl)pyrrolidin-1-yl)pyrazolo[1,5-a]pyrimidin-3-yl)-5,6,7,8-tetrahydroimidazo[4′,5′:4,5]benzo[1,2-e][1,4]diazepin-9(3H)-one]
≤ 10 | O=C1NCCOc2cc3[nH]c(-c4cnn5ccc(N6CCC[C@@H]6c6cc(F)ccc6F)nc45)nc3cc21 [Compound 147, (R)-2-(5-(2-(2,5-difluorophenyl)pyrrolidin-1-yl)pyrazolo[1,5-a]pyrimidin-3-yl)-7,8-dihydro-3H-imidazo[4′,5′:4,5]benzo[1,2-f][1,4]oxazepin-9(6H)-one]
≤ 10 | N#Cc1cc2nc(-c3cnn4ccc(N5CCC[C@@H]5c5cc(F)ccc5F)nc34)[nH]c2cc1O [Compound 149, (R)-2-(5-(2-(2,5-difluorophenyl)pyrrolidin-1-yl)pyrazolo[1,5-a]pyrimidin-3-yl)-6-hydroxy-1H-benzo[d]imidazole-5-carbonitrile]
10 to 50 | Cc1ccnc2[nH]c(-c3cnn4ccc(N5CCC[C@@H]5c5cc(F)ccc5F)nc34)nc12 [Compound 122, (R)-2-(5-(2-(2,5-difluorophenyl)pyrrolidin-1-yl)pyrazolo[1,5-a]pyrimidin-3-yl)-7-methyl-3H-imidazo[4,5-b]pyridine]
≤ 10 | COc1cc2nc(-c3c(N)nn4ccc(N5CCC[C@@H]5c5cc(F)ccc5F)nc34)[nH]c2cc1C#N [Compound 194, (R)-2-(2-amino-5-(2-(2,5-difluorophenyl)pyrrolidin-1-yl)pyrazolo[1,5-a]pyrimidin-3-yl)-5-methoxy-1H-benzo[d]imidazole-6-carbonitrile]
10 to 50 | Cc1cc2nc(-c3cnn4ccc(N5CCC[C@@H]5c5cc(F)ccc5F)nc34)oc2cc1OC(F)F [Compound 179, (R)-6-(difluoromethoxy)-2-(5-(2-(2,5-difluorophenyl)pyrrolidin-1-yl)pyrazolo[1,5-a]pyrimidin-3-yl)-5-methylbenzo[d]oxazole]
≤ 10 | OCc1ccc2nc(-c3cnn4ccc(N5CCC[C@@H]5c5cc(F)ccc5F)nc34)oc2c1 [Compound 69, (R)-(2-(5-(2-(2,5-difluorophenyl)pyrrolidin-1-yl)pyrazolo[1,5-a]pyrimidin-3-yl)benzo[d]oxazol-6-yl)methanol]
≤ 10 | Fc1ccc(F)c([C@H]2CCCN2c2ccn3ncc(-c4nnc(-c5ccc6c(c5)OCC6)[nH]4)c3n2)c1 [Compound 61, (R)-5-(2-(2,5-difluorophenyl)pyrrolidin-1-yl)-3-(5-(2,3-dihydrobenzofuran-6-yl)-4H-1,2,4-triazol-3-yl)pyrazolo[1,5-a]pyrimidine]
10 to 50 | Fc1ccc(F)c([C@H]2CCCN2c2ccn3ncc(-c4nnc5n4CCOC5)c3n2)c1 [Compound 200, (R)-3-(5-(2-(2,5-difluorophenyl)pyrrolidin-1-yl)pyrazolo[1,5-a]pyrimidin-3-yl)-5,6-dihydro-8H-[1,2,4]triazolo[3,4-c][1,4]oxazine]
> 50 | Fc1ccc(F)c([C@H]2CCCN2c2ccn3ncc(-c4nnc(-c5ccc(Oc6ccccc6)cc5)[nH]4)c3n2)c1 [Compound 58, (R)-5-(2-(2,5-difluorophenyl)pyrrolidin-1-yl)-3-(5-(4-phenoxyphenyl)-4H-1,2,4-triazol-3-yl)pyrazolo[1,5-a]pyrimidine]
≤ 10 | N#CCOc1cc2nc(-c3cnn4ccc(N5CCC[C@@H]5c5cc(F)ccc5F)nc34)[nH]c2cc1OCC#N [Compound 119, (R)-2,2′-((2-(5-(2-(2,5-difluorophenyl)pyrrolidin-1-yl)pyrazolo[1,5-a]pyrimidin-3-yl)-1H-benzo[d]imidazole-5,6-diyl)bis(oxy))diacetonitrile]

Same assay, conditions: numeric values; read-out: Trk A Kinase IC50

Compound | IC50 [nM]
N#Cc1cc2nc(-c3cnn4ccc(N5CCC[C@@H]5c5cc(F)ccc5F)nc34)oc2cc1O [Compound 177, (R)-2-(5-(2-(2,5-difluorophenyl)pyrrolidin-1-yl)pyrazolo[1,5-a]pyrimidin-3-yl)-6-hydroxybenzo[d]oxazole-5-carbonitrile] | 1.2
OC12CC3CC(C1)CC(c1nnc(-c4cnn5ccc(N6CCC[C@@H]6c6cc(F)ccc6F)nc45)[nH]1)(C3)C2 [Compound 37, (1R,3r)-3-(5-(5-((R)-2-(2,5-difluorophenyl)pyrrolidin-1-yl)pyrazolo[1,5-a]pyrimidin-3-yl)-4H-1,2,4-triazol-3-yl)adamantan-1-ol] | 1.57
COc1cc2nc(-c3cnn4ccc(N5CCC[C@@H]5c5cc(F)ccc5F)nc34)[nH]c2cc1C(N)=O [Compound 91, (R)-2-(5-(2-(2,5-difluorophenyl)pyrrolidin-1-yl)pyrazolo[1,5-a]pyrimidin-3-yl)-5-methoxy-1H-benzo[d]imidazole-6-carboxamide] | 0.26
CCC(O)C(F)(F)c1nnc(-c2cnn3ccc(N4CCC[C@@H]4c4cc(F)ccc4F)nc23)[nH]1 (stereo partly drawn) [Compound 46, 1-(5-(5-((R)-2-(2,5-difluorophenyl)pyrrolidin-1-yl)pyrazolo[1,5-a]pyrimidin-3-yl)-4H-1,2,4-triazol-3-yl)-1,1-difluorobutan-2-ol] | 2.02

Next, values leading:

IC50 [nM] | Compound
1 | COc1cccc2oc(-c3cnn4ccc(N5CCC[C@@H]5c5cc(F)ccc5F)nc34)nc12 [Compound 100, (R)-2-(5-(2-(2,5-difluorophenyl)pyrrolidin-1-yl)pyrazolo[1,5-a]pyrimidin-3-yl)-4-methoxybenzo[d]oxazole]
0.73 | COc1cc2nc(-c3cnn4ccc(N5CCC[C@@H]5c5cc(F)ccc5F)nc34)[nH]c2cc1OC [Compound 78, (R)-5-(2-(2,5-difluorophenyl)pyrrolidin-1-yl)-3-(5,6-dimethoxy-1H-benzo[d]imidazol-2-yl)pyrazolo[1,5-a]pyrimidine]
6.6 | O[C@H]1CCn2nc(-c3cnn4ccc(N5CCC[C@@H]5c5cc(F)ccc5F)nc34)nc2C1 [Compound 187, (S)-2-(5-((R)-2-(2,5-difluorophenyl)pyrrolidin-1-yl)pyrazolo[1,5-a]pyrimidin-3-yl)-5,6,7,8-tetrahydro-[1,2,4]triazolo[1,5-a]pyridin-7-ol]
0.5 | Cc1cncc2nc(-c3cnn4ccc(N5CCC[C@@H]5c5cc(F)ccc5F)nc34)[nH]c12 [Compound 99, (R)-2-(5-(2-(2,5-difluorophenyl)pyrrolidin-1-yl)pyrazolo[1,5-a]pyrimidin-3-yl)-7-methyl-1H-imidazo[4,5-c]pyridine]
